{"source": "patent US20030022158A1", "about": "“Peptides from the TT virus sequence and monospecific antibodies binding to the TT virus” (priority 1999, published 2003)", "key": {"[1]": {"tested_on": "human IgG antibodies in human serum samples", "assay": "EIA of human antibody reactivities to overlapping synthetic peptides of TTV ORF1 and ORF2 (Tables 2 and 3)", "format": "binding", "settings": "for optical density (OD) at 405 nm: serum diluted 1:100, OD over 0.500 considered positive", "in_short": "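Human serum diluted 1:100 was tested for IgG binding to 18-residue overlapping TTV peptides coated at 10 μg/ml (pH 9.6 carbonate, 48 h). Blocking buffer held BSA, goat serum and Tween 20. Alkaline phosphatase anti-human IgG gave a signal measured as OD at 405 nm.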"}, "[2]": {"tested_on": "human antibodies in human serum samples", "assay": "EIA reactivities of three human serum samples with deletion and alanine substitution analogues of SEQ ID NO: 1 (Table 6)", "format": "binding", "settings": "positive = more than 50% of the reactivity of the original peptide", "description": "The EIAs used to identify which peptides interacted with human sera followed protocols known in the art. (See Zhang et al., J Gen Virol, 78:2735-2746 (1997), herein expressly incorporated by reference in its entirety). Briefly, microplates (Nunc, Denmark) were coated for 48 hours with synthetic peptides at a concentration of 10 μg/ml in 0.05M sodium carbonate buffer pH 9.6. After blocking for 2 hours at room temperature with phosphate buffered saline containing 1% bovine serum albumin, 2% goat serum and 0.05% Tween 20 (dilution buffer) the plates were incubated with human sera diluted 1:100 in dilution buffer. Bound human IgG was detected by incubation with anti-human IgG antibodies conjugated to alkaline phosphatase (Sigma Chemicals, St. Louis, Mo.). The plates were developed by the addition of […] (Sigma) and the optical densities were determined at 405 nm.\nThe reactivity to the TATTTTYAYPGTNRPPV (SEQ ID NO: 1) peptide was further characterized by mapping the reactivity of deletion and substitution peptide analogues."}}}
{"sequence": "YTDIKYNPFTDRGEGNM (Peptide Immunogen) [compound 44, overlapping synthetic peptide of TTV ORF1]", "values": [{"measurement": "optical density (OD) at 405 nm", "setting": "[1]; human serum sample 1, negative for TTV DNA by PCR", "result": 0.09, "unit": "OD"}, {"measurement": "optical density (OD) at 405 nm", "setting": "[1]; human serum sample 2, negative for TTV DNA by PCR", "result": 0.11, "unit": "OD"}, {"measurement": "optical density (OD) at 405 nm", "setting": "[1]; human serum sample 3, negative for TTV DNA by PCR", "result": 0.11, "unit": "OD"}, {"measurement": "optical density (OD) at 405 nm", "setting": "[1]; human serum sample 4, negative for TTV DNA by PCR", "result": 0.12, "unit": "OD"}, {"measurement": "optical density (OD) at 405 nm", "setting": "[1]; human serum sample 5, negative for TTV DNA by PCR", "result": 0.98, "unit": "OD"}, {"measurement": "optical density (OD) at 405 nm", "setting": "[1]; human serum sample 6, negative for TTV DNA by PCR", "result": 0.15, "unit": "OD"}, {"measurement": "optical density (OD) at 405 nm", "setting": "[1]; human serum sample 7, negative for TTV DNA by PCR", "result": 0.10, "unit": "OD"}, {"measurement": "optical density (OD) at 405 nm", "setting": "[1]; human serum sample 9, positive for TTV DNA by PCR", "result": 0.09, "unit": "OD"}, {"measurement": "optical density (OD) at 405 nm", "setting": "[1]; human serum sample 11, negative for TTV DNA by PCR", "result": 0.14, "unit": "OD"}, {"measurement": "optical density (OD) at 405 nm", "setting": "[1]; human serum sample 18, positive for TTV DNA by PCR", "result": 0.09, "unit": "OD"}, {"measurement": "optical density (OD) at 405 nm", "setting": "[1]; human serum sample 36, positive for TTV DNA by PCR", "result": 0.08, "unit": "OD"}, {"measurement": "optical density (OD) at 405 nm", "setting": "[1]; human serum sample 48, positive for TTV DNA by PCR", "result": 0.08, "unit": "OD"}, {"measurement": "optical density (OD) at 405 nm", "setting": "[1]; human serum sample 98, positive for TTV DNA by PCR", "result": 0.12, "unit": "OD"}, {"measurement": "optical density (OD) at 405 nm", "setting": "[1]; human serum sample 110, positive for TTV DNA by PCR", "result": 0.13, "unit": "OD"}, {"measurement": "optical density (OD) at 405 nm", "setting": "[1]; human serum sample 155, positive for TTV DNA by PCR", "result": 0.17, "unit": "OD"}, {"measurement": "optical density (OD) at 405 nm", "setting": "[1]; human serum sample 157, positive for TTV DNA by PCR", "result": 1.25, "unit": "OD"}, {"measurement": "human reactivity to peptide (reactive peptides within ORF1)", "setting": "[1]; tested human sera, EIA", "result": "Reactive"}, {"measurement": "OD at 405 nm, reactivity of human serum sample P4", "setting": "[2]; human serum sample P4", "result": 0.855, "unit": "OD"}, {"measurement": "OD at 405 nm, reactivity of human serum sample P7", "setting": "[2]; human serum sample P7", "result": 1.829, "unit": "OD"}, {"measurement": "OD at 405 nm, reactivity of human serum sample P36", "setting": "[2]; human serum sample P36", "result": 0.806, "unit": "OD"}]}
